# Measured values reported in US11000033B2, “Ketone or oxime compound, and herbicide” (NISSAN CHEMICAL CORPORATION, priority 2014, dated 2021).
# How the values were obtained:
# Type in all cases: in vivo
# [1] = test system: Echinochloa crus-galli var. crus-galli; assay: Test Example 3: herbicidal effect by foliage application, Wagner pot (symbol H); conditions: application herbicide amount 320 g/ha
# How it was run: (§1)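 Foliar spray of water-diluted emulsion formulation at a predetermined herbicide amount onto 14-day-old plants in flooded alluvial soil (water depth 0.1–0.5 cm), greenhouse 25–30 °C; rice sown alongside. Scored 3 wk post-application on set criteria.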
# Amaranthus retroflexus = assay: Test Example 4: herbicidal effect by soil treatment (symbol N)
# How it was run: (§2)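 Seeds were sown in sterilized diluvial soil, covered with about 1.5 cm of soil, and the soil surface was sprayed with a water-diluted emulsion of the compound at a predetermined rate. Plants grew in a greenhouse at 25° C. to 30° C.; effects were scored visually 3 weeks after application.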
# [2] = test system: Echinochloa oryzacola Vasing.; assay: Test Example 1: herbicidal activity, application before weed generation in submerged conditions (symbol A); conditions: application herbicide amount 320 g/ha
# How it was run: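 Mixed weed seeds sown in alluvial soil under 4 cm of water, with rice seedlings at the 2.5-leaf stage added. Same-day treatment: emulsion diluted to a set herbicide amount onto the water. Three weeks at 25–30 °C, then graded on a six-step scale.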
# Alopecurus myosuroides = assay: Test Example 4: herbicidal effect by soil treatment (symbol J)
# How it was run: as §2
# Setaria viridis [3] = assay: Test Example 4: herbicidal effect by soil treatment (symbol G)
# How it was run: as §2
# Digitaria ciliaris [4] = assay: Test Example 5: herbicidal effect by foliage application, plastic box (symbol F); conditions: 320 g/ha, 3 weeks after application
# How it was run: (§3)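 Leaf-applied emulsion, water-diluted to a preset herbicide dose, on two-week-old seedlings raised in a 25° C. to 30° C. greenhouse; injury rated at 3 weeks using earlier criteria.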
# Setaria viridis [5] = assay: Test Example 5: herbicidal effect by foliage application, plastic box (symbol G); conditions: 320 g/ha, 3 weeks after application
# How it was run: as §3
# Galium spurium = assay: Test Example 5: herbicidal effect by foliage application, plastic box (symbol Q); conditions: 320 g/ha, 3 weeks after application
# How it was run: as §3
# Lolium multiflorum Lam. = assay: Test Example 5: herbicidal effect by foliage application, plastic box (symbol K); conditions: 320 g/ha, 3 weeks after application
# How it was run: as §3
# Leptochloa chinensis = assay: Test Example 3: herbicidal effect by foliage application, Wagner pot (symbol D); conditions: application herbicide amount 320 g/ha
# How it was run: as §1
# Avena fatua = assay: Test Example 4: herbicidal effect by soil treatment (symbol I)
# How it was run: as §2
# rice plant = assay: Test Example 5: effect on crop by foliage application, plastic box (symbol b); conditions: 320 g/ha, 3 weeks after application
# How it was run: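 Sterilized diluvial soil, plastic box (21 × 13 × 7 cm); spot sowing, ~1.5 cm soil cover; greenhouse 25–30° C.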
# Apera spica-venti = assay: Test Example 5: herbicidal effect by foliage application, plastic box (symbol L); conditions: 320 g/ha, 3 weeks after application
# How it was run: as §3
# rapeseed = assay: Test Example 4: effect on crop by soil treatment (symbol g); conditions: for g: rapeseed, effect grade on crop: 320 g/ha
# How it was run: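 Diluvial soil (sterilized) in boxes; seeds placed spot-wise alongside weed species; ~1.5 cm covering soil. Greenhouse, 25–30° C.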
# Digitaria ciliaris [6] = assay: Test Example 4: herbicidal effect by soil treatment (symbol F)
# How it was run: as §2
# Chenopodium album = assay: Test Example 5: herbicidal effect by foliage application, plastic box (symbol O); conditions: 320 g/ha, 3 weeks after application
# How it was run: as §3
# Abutilon theophrasti = assay: Test Example 5: herbicidal effect by foliage application, plastic box (symbol M); conditions: 320 g/ha, 3 weeks after application
# How it was run: as §3
# Veronica persica = assay: Test Example 4: herbicidal effect by soil treatment (symbol R)
# How it was run: as §2
# Stellaria media = assay: Test Example 5: herbicidal effect by foliage application, plastic box (symbol P); conditions: 320 g/ha, 3 weeks after application
# How it was run: as §3
# [7] = application herbicide amount 320 g/ha
SMILES,"herbicidal effect on H (Echinochloa crus-galli var. crus-galli), grade 0-5 [1]","N: Amaranthus retroflexus, herbicidal effect grade (Amaranthus retroflexus; 320 g/ha)","Herbicidal effect grade, A: Echinochloa oryzacola Vasing. [2]","J: Alopecurus myosuroides, herbicidal effect grade (Alopecurus myosuroides; 320 g/ha)","G: Setaria viridis, herbicidal effect grade (Setaria viridis [3]; 320 g/ha)","F: Digitaria ciliaris, herbicidal effect (criteria 0-5) (Digitaria ciliaris [4])","G: Setaria viridis, herbicidal effect (criteria 0-5) (Setaria viridis [5])","Q: Galium spurium, herbicidal effect (criteria 0-5) (Galium spurium)","K: Lolium multiflorum Lam., herbicidal effect (criteria 0-5) (Lolium multiflorum Lam.)","herbicidal effect on D (Leptochloa chinensis), grade 0-5 (Leptochloa chinensis)","I: Avena fatua, herbicidal effect grade (Avena fatua; 320 g/ha)","b: directly sowed rice plant, effect on crop (criteria 0-5) (rice plant)","L: Apera spica-venti, herbicidal effect (criteria 0-5) (Apera spica-venti)","g: rapeseed, effect grade on crop (rapeseed)","F: Digitaria ciliaris, herbicidal effect grade (Digitaria ciliaris [6]; 320 g/ha)","O: Chenopodium album, herbicidal effect (criteria 0-5) (Chenopodium album)","M: Abutilon theophrasti, herbicidal effect (criteria 0-5) (Abutilon theophrasti)","R: Veronica persica, herbicidal effect grade (Veronica persica; 320 g/ha)","P: Stellaria media, herbicidal effect (criteria 0-5) (Stellaria media)","F: Digitaria ciliaris, herbicidal effect grade (Digitaria ciliaris [4])",other results
CON=C(C)CC1CC(OC(=O)OCc2ccccc2)=C(c2c(C)cc(C)cc2C)C1=O (stereo not shown) [1-145],5 (Herbicidal ratio of 90% or more (almost completely withered)),4 (Herbicidal ratio of 70% or higher and lower than 90%),5 (Herbicidal ratio of 90% or more (almost completely withered)),5 (Herbicidal ratio of 90% or more (almost completely withered)),5 (Herbicidal ratio of 90% or more (almost completely withered)),5 (Herbicidal ratio of 90% or more (almost completely withered)),5 (Herbicidal ratio of 90% or more (almost completely withered)),2 (Herbicidal ratio of 20% or higher and lower than 40%),5 (Herbicidal ratio of 90% or more (almost completely withered)),5 (Herbicidal ratio of 90% or more (almost completely withered)),4 (Herbicidal ratio of 70% or higher and lower than 90%),5 (Herbicidal ratio of 90% or more (almost completely withered)),5 (Herbicidal ratio of 90% or more (almost completely withered)),4 (Herbicidal ratio of 70% or higher and lower than 90%),5 (Herbicidal ratio of 90% or more (almost completely withered)),1 (Herbicidal ratio of 5% or higher and lower than 20%),3 (Herbicidal ratio of 40% or higher and lower than 70%),3 (Herbicidal ratio of 40% or higher and lower than 70%),2 (Herbicidal ratio of 20% or higher and lower than 40%),–,–
C=CCN(CC=C)C(=O)OC1=C(c2c(C)cc(C)cc2C)C(=O)C(CC(C)=NOC)C1 (stereo not shown) [1-153],5 (Herbicidal ratio of 90% or more (almost completely withered)),0 (Herbicidal ratio of 5% or lower (almost no effect)),5 (Herbicidal ratio of 90% or more (almost completely withered)),3 (Herbicidal ratio of 40% or higher and lower than 70%),1 (Herbicidal ratio of 5% or higher and lower than 20%),5 (Herbicidal ratio of 90% or more (almost completely withered)),5 (Herbicidal ratio of 90% or more (almost completely withered)),3 (Herbicidal ratio of 40% or higher and lower than 70%),5 (Herbicidal ratio of 90% or more (almost completely withered)),5 (Herbicidal ratio of 90% or more (almost completely withered)),0 (Herbicidal ratio of 5% or lower (almost no effect)),5 (Herbicidal ratio of 90% or more (almost completely withered)),5 (Herbicidal ratio of 90% or more (almost completely withered)),0 (Herbicidal ratio of 5% or lower (almost no effect)),5 (Herbicidal ratio of 90% or more (almost completely withered)),0 (Herbicidal ratio of 5% or lower (almost no effect)),4 (Herbicidal ratio of 70% or higher and lower than 90%),0 (Herbicidal ratio of 5% or lower (almost no effect)),0 (Herbicidal ratio of 5% or lower (almost no effect)),–,–
CON=C(C)CC1CC(OC(=O)C(C)Oc2ccc(Oc3ccc(Cl)cc3Cl)cc2)=C(c2c(C)cc(C)cc2C)C1=O (stereo not shown) [1-163],5 (Herbicidal ratio of 90% or more (almost completely withered)),4 (Herbicidal ratio of 70% or higher and lower than 90%),5 (Herbicidal ratio of 90% or more (almost completely withered)),5 (Herbicidal ratio of 90% or more (almost completely withered)),5 (Herbicidal ratio of 90% or more (almost completely withered)),–,–,–,–,5 (Herbicidal ratio of 90% or more (almost completely withered)),3 (Herbicidal ratio of 40% or higher and lower than 70%),–,–,4 (Herbicidal ratio of 70% or higher and lower than 90%),5 (Herbicidal ratio of 90% or more (almost completely withered)),–,–,0 (Herbicidal ratio of 5% or lower (almost no effect)),–,5 (Herbicidal ratio of 90% or more (almost completely withered)),"G: Setaria viridis, herbicidal effect grade (Setaria viridis [5]): 5 (Herbicidal ratio of 90% or more (almost completely withered)); Q: Galium spurium, herbicidal effect grade (Galium spurium): 3 (Herbicidal ratio of 40% or higher and lower than 70%); K: Lolium multiflorum Lam., herbicidal effect grade (Lolium multiflorum Lam.): 5 (Herbicidal ratio of 90% or more (almost completely withered)); b: directly sowed rice plant, effect on crop grade (rice plant): 5 (Herbicidal ratio of 90% or more (almost completely withered)); L: Apera spica-venti, herbicidal effect grade (Apera spica-venti): 5 (Herbicidal ratio of 90% or more (almost completely withered)); O: Chenopodium album, herbicidal effect grade (Chenopodium album): 3 (Herbicidal ratio of 40% or higher and lower than 70%); M: Abutilon theophrasti, herbicidal effect grade (Abutilon theophrasti): 4 (Herbicidal ratio of 70% or higher and lower than 90%); P: Stellaria media, herbicidal effect grade (Stellaria media): 3 (Herbicidal ratio of 40% or higher and lower than 70%)"
CON=C(C)CC1CC(O)=C(c2c(C)cc(C(C)=O)cc2C)C1=O (stereo not shown) [6-026],5 (Herbicidal ratio of 90% or more (almost completely withered)),–,1 (Herbicidal ratio of 5% or higher and lower than 20%),–,–,–,–,–,–,5 (Herbicidal ratio of 90% or more (almost completely withered)),–,–,–,–,–,–,–,–,–,5 (Herbicidal ratio of 90% or more (almost completely withered)),"N: Amaranthus retroflexus, herbicidal effect grade (Amaranthus retroflexus; [7]): 2 (Herbicidal ratio of 20% or higher and lower than 40%); J: Alopecurus myosuroides, herbicidal effect grade (Alopecurus myosuroides; [7]): 1 (Herbicidal ratio of 5% or higher and lower than 20%); G: Setaria viridis, herbicidal effect grade (Setaria viridis [3]; [7]): 4 (Herbicidal ratio of 70% or higher and lower than 90%); G: Setaria viridis, herbicidal effect grade (Setaria viridis [5]): 5 (Herbicidal ratio of 90% or more (almost completely withered)); Q: Galium spurium, herbicidal effect grade (Galium spurium): 0 (Herbicidal ratio of 5% or lower (almost no effect)); K: Lolium multiflorum Lam., herbicidal effect grade (Lolium multiflorum Lam.): 5 (Herbicidal ratio of 90% or more (almost completely withered)); I: Avena fatua, herbicidal effect grade (Avena fatua; [7]): 0 (Herbicidal ratio of 5% or lower (almost no effect)); b: directly sowed rice plant, effect on crop grade (rice plant): 5 (Herbicidal ratio of 90% or more (almost completely withered)); L: Apera spica-venti, herbicidal effect grade (Apera spica-venti): 3 (Herbicidal ratio of 40% or higher and lower than 70%); g: rapeseed, effect on crop grade (rapeseed; [7]): 0 (Herbicidal ratio of 5% or lower (almost no effect)); F: Digitaria ciliaris, herbicidal effect grade (Digitaria ciliaris [6]; [7]): 4 (Herbicidal ratio of 70% or higher and lower than 90%); O: Chenopodium album, herbicidal effect grade (Chenopodium album): 0 (Herbicidal ratio of 5% or lower (almost no effect)); M: Abutilon theophrasti, herbicidal effect grade (Abutilon theophrasti): 0 (Herbicidal ratio of 5% or lower (almost no effect)); R: Veronica persica, herbicidal effect grade (Veronica persica; [7]): 0 (Herbicidal ratio of 5% or lower (almost no effect)); P: Stellaria media, herbicidal effect grade (Stellaria media): 0 (Herbicidal ratio of 5% or lower (almost no effect))"
